The structures appear in SMILES notation. Structures can show the parent of a compound that is named as a salt.

In general, IC50 refers to the point on the concentration scale where inhibition reaches its midpoint.

Chain of human PDE10A (Q9Y233 290-1055 limits assumed): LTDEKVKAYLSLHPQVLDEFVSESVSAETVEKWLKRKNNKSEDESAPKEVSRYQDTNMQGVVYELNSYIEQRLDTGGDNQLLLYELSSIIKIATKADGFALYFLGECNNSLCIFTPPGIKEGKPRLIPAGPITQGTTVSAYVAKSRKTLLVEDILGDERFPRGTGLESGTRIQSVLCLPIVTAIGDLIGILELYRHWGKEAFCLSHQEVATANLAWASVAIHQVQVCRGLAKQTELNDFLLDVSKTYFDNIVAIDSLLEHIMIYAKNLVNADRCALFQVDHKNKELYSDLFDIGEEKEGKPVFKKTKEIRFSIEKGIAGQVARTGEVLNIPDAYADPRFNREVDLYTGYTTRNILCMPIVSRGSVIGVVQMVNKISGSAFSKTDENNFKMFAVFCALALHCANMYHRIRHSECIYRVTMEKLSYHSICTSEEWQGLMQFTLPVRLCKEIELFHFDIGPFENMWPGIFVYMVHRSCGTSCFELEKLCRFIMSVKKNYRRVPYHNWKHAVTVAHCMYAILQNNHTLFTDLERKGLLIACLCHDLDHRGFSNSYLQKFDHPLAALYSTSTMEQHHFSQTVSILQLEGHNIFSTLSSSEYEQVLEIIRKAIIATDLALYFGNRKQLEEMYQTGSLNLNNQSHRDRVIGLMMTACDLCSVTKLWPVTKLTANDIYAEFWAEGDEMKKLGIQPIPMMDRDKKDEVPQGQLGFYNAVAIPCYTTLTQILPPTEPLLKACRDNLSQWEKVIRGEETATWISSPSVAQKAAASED

One test addresses human PDE10A (UniProt Q9Y233). The test is described as follows: Measurement of PDE activity (recombinant enzyme, HTRF cAMP kit). It counts as biochemical. As to conditions: Table 1, substrate 20 nM for PDE10, 60 minutes at 29 C. A digest of the protocol:
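HTRF detection of cAMP left after hydrolysis, expressed as percent of uninhibited control to derive IC50. Reaction: serially diluted inhibitor mixed with recombinant enzyme, started with 20 nM cAMP, 60 min at 29 °C in Tris-HCl pH 7.5 buffer containing MgCl2 and BSA.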
In general terms: In TR-FRET formats the signal depends on donor and acceptor labels being close together.
As for `O=c1c2c(N3C4CCC3COC4)cccc2cnn1CCc1cn2ccccc2n1` [compound 338, 2-[2-(imidazo[1,2-a]pyridin-2-yl)ethyl]-8-(3-oxa-8-azabicyclo[3.2.1]oct-8-yl)phthalazin-1(2H)-one], the half-maximal inhibitory concentration (IC50) is less than 100 nM.

The test is the same for the next values; noted with them: Table 1, substrate 20 nM for PDE10, 60 minutes at 29 C, read-out: IC50.
As for `O=c1c2c(-c3ccnnc3)csc2ccn1C1CC1c1ccc2ccccc2n1` (stereo not shown) [compound 285], the 50% inhibitory concentration (IC50) is less than 100 nM.
For the compound `O=c1c2c(N3CCOCC3)csc2ccn1C1CC1c1ccc2ccccc2n1` (stereo not shown) [compound 287], the IC50 was less than 100 nM.
The same measure, in the same setting: to `O=c1c2c(-c3cccnc3)csc2ccn1C1CC1c1ccc2sccc2n1` (stereo not shown) [compound 288] belongs less than 100 nM; to `O=c1c2c(-c3cccnc3)csc2ccn1C1CC1c1ccc2ccccc2n1` (stereo not shown) [compound 289], less than 100 nM.
On the same count and under the same terms, to `O=c1c2c(-c3cncnc3)csc2cnn1C1CC1c1ccc2ccccc2n1` (stereo not shown) [compound 290] belongs less than 100 nM; to `O=c1c2c(-c3ccncc3)csc2cnn1C1CC1c1ccc2sccc2n1` (stereo not shown) [compound 291], less than 100 nM.
As to `O=c1c2c(-c3ccncc3)csc2ccn1C1CC1c1ccc2sccc2n1` (stereo not shown) [compound 292], the IC50 is less than 100 nM.
Turning to `O=c1c2c(-c3ccncc3)csc2ccn1C1CC1c1ccc2ccccc2n1` (stereo not shown) [compound 293], the half-maximal inhibitory concentration (IC50) is less than 100 nM.
`O=c1c2c(-c3ccncc3)csc2cnn1C1CC1c1ccc2ccccc2n1` (stereo not shown) [compound 295]: the IC50 is less than 100 nM.
For the compound `O=c1c2cccc(-c3cncnc3)c2ccn1C1CC1c1ccc2ccccc2n1` (stereo not shown) [compound 296], the IC50 was 100 to 200 nM.
On to `O=c1c2cccc(-c3ccncc3)c2ccn1C1CC1c1ccc2ccccc2n1` (stereo not shown) [compound 297], for which the 50% inhibitory concentration (IC50) is less than 100 nM.
`O=c1c2cccc(-c3cccnc3)c2ccn1C1CC1c1ccc2ccccc2n1` (stereo not shown) [compound 298]: the concentration for half-maximal inhibition (IC50) fell in the range of 100 to 200 nM.
Consider `O=c1c2cccc(N3CCOCC3)c2ccn1C1CC1c1ccc2ccccc2n1` (stereo not shown) [compound 299], for which the concentration for half-maximal inhibition (IC50) is less than 100 nM.
As to `Cn1cnc(-c2nn(CCc3cn4ccccc4n3)c(=O)c3c(-c4ccncc4)csc23)c1` [compound 302, 5-[2-(imidazo[1,2-a]pyridin-2-yl)ethyl]-7-(1-methyl-1H-imidazol-4-yl)-3-(pyridin-4-yl)thieno[2,3-d]pyridazin-4(5H)-one], the concentration for half-maximal inhibition (IC50) is less than 100 nM.
Regarding `Cn1cc(-c2nn(CCc3cn4ccccc4n3)c(=O)c3c(-c4ccncc4)csc23)cn1` [compound 303, 5-[2-(imidazo[1,2-a]pyridin-2-yl)ethyl]-7-(1-methyl-1H-pyrazol-4-yl)-3-(pyridin-4-yl)thieno[2,3-d]pyridazin-4(5H)-one], the IC50 was less than 100 nM.
With `O=c1c2c(-c3ccncc3)csc2c(-c2cccnc2)nn1CCc1cn2ccccc2n1` [compound 304, 5-[2-(imidazo[1,2-a]pyridin-2-yl)ethyl]-7-(pyridin-3-yl)-3-(pyridin-4-yl)thieno[2,3-d]pyridazin-4(5H)-one], the IC50 is less than 100 nM.
As to `Cc1cc2ccccc2nc1CCn1ccc2scc(-c3ccncc3)c2c1=O` [compound 306, 5-[2-(3-methylquinolin-2-yl)ethyl]-3-(pyridin-4-yl)thieno[3,2-c]pyridin-4(5H)-one], the IC50 is less than 100 nM.
As to `O=c1c2c(-c3ccncc3)csc2ccn1CCc1ccc2cccc(F)c2n1` [compound 307, 5-[2-(8-fluoroquinolin-2-yl)ethyl]-3-(pyridin-4-yl)thieno[3,2-c]pyridin-4(5H)-one], the IC50 is 200 to 500 nM.
As to `O=c1c2c(-c3cccnc3)csc2ccn1CCc1ccc2cc(F)ccc2n1` [compound 308, hydrochloride], the IC50 is less than 100 nM.
Consider `O=c1c2c(-c3ccncc3)csc2ccn1CCc1ccc2cc(F)ccc2n1` [compound 309, 5-[2-(6-fluoroquinolin-2-yl)ethyl]-3-(pyridin-4-yl)thieno[3,2-c]pyridin-4(5H)-one], for which the half-maximal inhibitory concentration (IC50) is less than 100 nM.
On the same count and under the same terms, to `O=c1c2c(-c3cccnc3)csc2ccn1CCc1cn2ccccc2n1` [compound 310, 5-[2-(imidazo[1,2-a]pyridin-2-yl)ethyl]-3-(pyridin-3-yl)thieno[3,2-c]pyridin-4(5H)-one] belongs less than 100 nM; to `O=c1c2c(-c3ccncc3)csc2cnn1CCc1cnc2ccccc2n1` [compound 311, hydrochloride], 100 to 200 nM; to `O=c1c2c(-c3ccncc3)csc2cnn1CCc1ccc2ncccc2n1` [compound 312, 5-[2-(1,5-naphthyridin-2-yl)ethyl]-3-(pyridin-4-yl)thieno[2,3-d]pyridazin-4(5H)-one], less than 100 nM.
On to `O=c1c2c(-c3cc[nH]n3)csc2cnn1CCc1ccc2ccccc2n1` [compound 315, 3-(1H-pyrazol-3-yl)-5-[2-(quinolin-2-yl)ethyl]thieno[2,3-d]pyridazin-4(5H)-one], for which the concentration for half-maximal inhibition (IC50) was less than 100 nM.
On to `O=c1c2c(-c3ccncc3)csc2cnn1CCc1nc2ccccc2[nH]1` [compound 317, hydrochloride], for which the IC50 is less than 100 nM.
Same read-out and setting: to `O=c1c2c(-c3ccncc3)csc2cnn1CCc1ccc2cc(Cl)ccc2n1` [compound 318, hydrochloride] belongs 200 to 500 nM.
On the same count and under the same terms, to `O=c1c2c(C#Cc3cccnc3)csc2cnn1CCc1ccc2ccccc2n1` [compound 319, hydrochloride] belongs less than 100 nM; to `O=c1c2c(C#Cc3ccncc3)csc2cnn1CCc1ccc2ccccc2n1` [compound 320, hydrochloride], 200 to 500 nM.
For the compound `Cc1cnc(CCn2ncc3scc(-c4ccncc4)c3c2=O)c(C)c1` [compound 321, 5-[2-(3,5-dimethylpyridin-2-yl)ethyl]-3-(pyridin-4-yl)thieno[2,3-d]pyridazin-4(5H)-one], the IC50 was 100 to 200 nM.
As for `O=c1c2c(-c3ccncc3)csc2cnn1CCc1ccc2ccc(F)cc2n1` [compound 322, 5-[2-(7-fluoroquinolin-2-yl)ethyl]-3-(pyridin-4-yl)thieno[2,3-d]pyridazin-4(5H)-one], the half-maximal inhibitory concentration (IC50) was 200 to 500 nM.
As to `Cc1cc2ccccc2nc1CCn1ccc2cccc(-c3ccncc3)c2c1=O` [compound 327, 2-[2-(3-methylquinolin-2-yl)ethyl]-8-(pyridin-4-yl)isoquinolin-1(2H)-one], the half-maximal inhibitory concentration (IC50) was less than 100 nM.
For `O=c1c2c(-c3cc[nH]n3)cccc2cnn1CCc1cn2ccccc2n1` [compound 328, 2-[2-(imidazo[1,2-a]pyridin-2-yl)ethyl]-8-(1H-pyrazol-3-yl)phthalazin-1(2H)-one], the IC50 is 200 to 500 nM.
Consider `O=c1c2c(N3CCOCC3)cccc2cnn1CCc1ccc2ccccc2n1` [compound 329, hydrochloride], for which the half-inhibitory concentration (IC50) is less than 100 nM.
As for `O=c1c2c(N3CCCC4(CC3)CNCCO4)cccc2cnn1CCc1cn2ccccc2n1` (stereo not shown) [compound 330, dihydrochloride], the IC50 lay in the range of 200 to 500 nM.
Consider `O=c1c2c(N3CCC[C@@H](O)C3)cccc2cnn1CCc1cn2ccccc2n1` [compound 332], for which the 50% inhibitory concentration (IC50) is 200 to 500 nM.
On the same count and under the same terms, to `O=c1c2c(N3CCC[C@H](O)C3)cccc2cnn1CCc1cn2ccccc2n1` [compound 333] belongs less than 100 nM.
For the compound `O=c1c2c(N3CC4(COC4)C3)cccc2cnn1CCc1cn2ccccc2n1` [compound 334, 2-[2-(imidazo[1,2-a]pyridin-2-yl)ethyl]-8-(2-oxa-6-azaspiro[3.3]hept-6-yl)phthalazin-1(2H)-one], the IC50 was 100 to 200 nM.
On the same count and under the same terms, to `O=c1c2c(C3CCOC3)cccc2cnn1CCc1cn2ccccc2n1` (stereo not shown) [compound 337, 2-[2-(imidazo[1,2-a]pyridin-2-yl)ethyl]-8-(tetrahydrofuran-3-yl)phthalazin-1(2H)-one] belongs less than 100 nM; to `O=c1c2c(N3CCC4(COC4)C3)cccc2cnn1CCc1cn2ccccc2n1` [compound 339, 2-[2-(imidazo[1,2-a]pyridin-2-yl)ethyl]-8-(2-oxa-6-azaspiro[3.4]oct-6-yl)phthalazin-1(2H)-one], less than 100 nM; to `O=c1c2c(N3CCC(O)CC3)cccc2cnn1CCc1cn2ccccc2n1` [compound 341, 8-(4-hydroxypiperidin-1-yl)-2-[2-(imidazo[1,2-a]pyridin-2-yl)ethyl]phthalazin-1(2H)-one], less than 100 nM.
In the case of `Cc1ncc(-c2cccc3cnn(CCc4cn5ccccc5n4)c(=O)c23)cn1` [compound 342, 2-[2-(imidazo[1,2-a]pyridin-2-yl)ethyl]-8-(2-methylpyrimidin-5-yl)phthalazin-1(2H)-one], the concentration for half-maximal inhibition (IC50) fell in the range of 100 to 200 nM.
Take `O=c1c2c(-c3cnc(C4CC4)nc3)cccc2cnn1CCc1cn2ccccc2n1` [compound 343, 8-(2-cyclopropylpyrimidin-5-yl)-2-[2-(imidazo[1,2-a]pyridin-2-yl)ethyl]phthalazin-1(2H)-one]: the IC50 was in the range of 200 to 500 nM.
As for `O=c1c2c(-c3ccnnc3)cccc2cnn1CCc1cn2ccccc2n1` [compound 344, 2-[2-(imidazo[1,2-a]pyridin-2-yl)ethyl]-8-(pyridazin-4-yl)phthalazin-1(2H)-one], the 50% inhibitory concentration (IC50) is 100 to 200 nM.
`O=c1c2c(-c3cncc(F)c3)cccc2cnn1CCc1cn2ccccc2n1` [compound 345, hydrochloride]: the IC50 fell in the range of 100 to 200 nM.
As for `COc1ncc(-c2cccc3cnn(CCc4cn5ccccc5n4)c(=O)c23)cn1` [compound 347, 2-[2-(imidazo[1,2-a]pyridin-2-yl)ethyl]-8-(2-methoxypyrimidin-5-yl)phthalazin-1(2H)-one], the half-inhibitory concentration (IC50) is 100 to 200 nM.
`O=c1c2c(-c3ccnc(C(F)(F)F)c3)cccc2cnn1CCc1cn2ccccc2n1` [compound 348, 2-[2-(imidazo[1,2-a]pyridin-2-yl)ethyl]-8-[2-(trifluoromethyl)pyridin-4-yl]phthalazin-1(2H)-one]: the IC50 was 100 to 200 nM.
On to `O=c1c2c(N3CC4CCC(C3)O4)cccc2cnn1CCc1cn2ccccc2n1` [compound 349, 2-[2-(imidazo[1,2-a]pyridin-2-yl)ethyl]-8-(8-oxa-3-azabicyclo[3.2.1]oct-3-yl)phthalazin-1(2H)-one], for which the IC50 is less than 100 nM.
Same read-out and setting: to `O=c1c2c(C3CCNCC3)cccc2cnn1CCc1cn2ccccc2n1` [compound 354, hydrochloride] belongs less than 100 nM.

(Values after patent US20130116241A1, “NOVEL INHIBITOR COMPOUNDS OF PHOSPHODIESTERASE TYPE 10A” (AbbVie Inc., priority 2011, published 2013).)
